Measurements from patent US20170037007A1, “SUBSTITUTED N-(2-(AMINO)-2OXOETHYL)BENZAMIDE INHIBITORS OF AUTOTAXIN AND THEIR PREPARATION AND USE IN THE TREATMENT OF LPA-DEPENDENT OR LPA-MEDIATED DISEASES” (X-Rx, Inc., priority 2014, published 2017).

Biological target: T1, Autotaxin (Homo sapiens, UniProt Q13822)
T1 construct: purchased X-Chem
Assay: Autotaxin LPC Cascade Assay
Assay type: biochemical
Details: 5 nM autotaxin, 100 μM LPC, choline oxidase/HRP/Ampliflu Red fluorescence readout; read-out: IC50 ATX activity values, IC50
Experimental: Autotaxin LPC Cascade Assay
HA130 and Test Compounds:
Highest final concentration is […] for HA130 (Echelon, B-0701) and 30 μM for test compounds. Prepare a 1 mM stock of HA130 and a 3 mM stock of each compound in 100% DMSO. Perform a 1:3 serial dilution in DMSO (transfer 5 μl of compound to 10 μl of DMSO). Add 240 μl of buffer to generate a top working concentration of 40 µM (HA130) and 120 µM (test compound) in 4% DMSO.
Ampliflu Red—Prepare a stock of 5 mM from 100 mM in 100% DMSO. Further dilute to a working concentration of 400 μM in buffer (8% DMSO).
Together with compound this yields a 2% DMSO final concentration.
Choline Oxidase/HRP—0.8 U/ml CO and 8 U/ml HRP.
Add 5 μl of ATX and 5 μl of compound in a 384 well plate (Corning 3676). Incubate for 10 mins at RT. Add 5 μl of LPC and incubate for 1 hr on the plate shaker. Prepare the CO/HRP and AR prior to use. Add 2.5 μl of CO/HRP and follow with 2.5 μl AR. Note order of addition, CO/HRP mix before AR. Read fluorescence intensity (λex/λem: 530/590 nm) kinetically for 30 min at RT on the Tecan M1000.

Row | SMILES | IC50
1 | CC(C)[C@@H](NC(=O)c1cc(Cc2ccccc2)ccc1F)C(=O)N1CCC(C)(Nc2ccc(S(C)(=O)=O)cc2)CC1 [Example 30, (R)-5-Benzyl-2-fluoro-N-(3-methyl-1-(4-methyl-4-(4-(methylsulfonyl)phenylamino)piperidin-1-yl)-1-oxobutan-2-yl)benzamide] | 500 to 5000 nM
2 | CC(C)[C@@H](NC(=O)c1cc(-c2ccccc2)ccc1F)C(=O)N1CCC(C)(Nc2ccc(S(C)(=O)=O)cc2)CC1 [Example 32, (R)-4-Fluoro-N-(3-methyl-1-(4-methyl-4-(4-(methylsulfonyl)phenylamino)piperidin-1-yl)-1-oxobutan-2-yl)biphenyl-3-carboxamide] | 100 to 500 nM
3 | CC(C)[C@@H](NC(=O)c1cc(C2CC2)ccc1F)C(=O)N1CCC(C)(Nc2ccc(S(C)(=O)=O)cc2)CC1 [Example 33, (R)-5-Cyclopropyl-2-fluoro-N-(3-methyl-1-(4-methyl-4-(4-(methylsulfonyl)phenylamino)piperidin-1-yl)-1-oxobutan-2-yl)benzamide] | 100 to 500 nM
4 | CCc1cc(C(=O)N[C@@H](C(=O)N2CCC(C)(Nc3ccc(S(C)(=O)=O)cc3)CC2)C(C)C)c(F)cc1C [Example 34, (R)-5-Ethyl-2-fluoro-4-methyl-N-(3-methyl-1-(4-methyl-4-(4-(methylsulfonyl)phenylamino)piperidin-1-yl)-1-oxobutan-2-yl)benzamide] | 100 to 500 nM
5 | CCc1ccc(F)c(C(=O)N[C@@H](C(=O)N2CCC(C)(CNc3ccc(S(C)(=O)=O)cc3)CC2)C(C)C)c1 [Example 35, (R)-5-Ethyl-2-fluoro-N-(3-methyl-1-(4-methyl-4-((4-(methylsulfonyl)phenylamino)methyl)piperidin-1-yl)-1-oxobutan-2-yl)benzamide] | 100 to 500 nM
6 | COc1ccc(CNC2(C)CCN(C(=O)[C@H](NC(=O)c3cccc(OC(F)(F)F)c3)C(C)C)CC2)cc1 [Example 43, (R)—N-(1-(4-((4-Methoxybenzyl)amino)-4-methylpiperidin-1-yl)-3-methyl-1-oxobutan-2-yl)-3-(trifluoromethoxy)benzamide] | 500 to 5000 nM

Results, then the molecule that gave them:

Row | IC50 | SMILES
7 | 500 to 5000 nM | CC(C)[C@@H](NC(=O)c1cc(C(C)(C)C)ccc1F)C(=O)N1CCC(C)(Nc2ccc(S(C)(=O)=O)cc2)CC1 [Example 29, (R)-5-tert-Butyl-2-fluoro-N-(3-methyl-1-(4-methyl-4-(4-(methylsulfonyl)phenylamino)piperidin-1-yl)-1-oxobutan-2-yl)benzamide]
8 | 10 to 100 nM | CC(C)Cc1ccc(F)c(C(=O)N[C@@H](C(=O)N2CCC(C)(Nc3ccc(S(C)(=O)=O)cc3)CC2)C(C)C)c1 [Example 31, (R)-2-Fluoro-5-isobutyl-N-(3-methyl-1-(4-methyl-4-(4-(methylsulfonyl)phenylamino)piperidin-1-yl)-1-oxobutan-2-yl)benzamide]
9 | 10 to 100 nM | CC(C)c1ccc(F)c(C(=O)N[C@@H](C(=O)N2CCC(C)(Nc3ccc(S(C)(=O)=O)cc3)CC2)C(C)C)c1 [Example 36, (R)-2-Fluoro-5-isopropyl-N-(3-methyl-1-(4-methyl-4-(4-(methylsulfonyl)phenylamino)piperidin-1-yl)-1-oxobutan-2-yl)benzamide]
10 | 500 to 5000 nM | CC(C)[C@@H](NC(=O)c1cc(OC(F)(F)F)ccc1F)C(=O)N1CCC(C)(NC(=O)c2ccc(S(C)(=O)=O)cc2)CC1 [Example 37, (R)-2-Fluoro-N-(3-methyl-1-(4-methyl-4-(4-(methylsulfonyl)benzamido)piperidin-1-yl)-1-oxobutan-2-yl)-5-(trifluoromethoxy)benzamide]
11 | 500 to 5000 nM | CC(C)[C@@H](NC(=O)c1cccc(OC(F)(F)F)c1)C(=O)N1CCC(C)(NC(=O)c2ccc(S(C)(=O)=O)cc2)CC1 [Example 38, (R)—N-(3-Methyl-1-(4-methyl-4-(4-(methylsulfonyl)benzamido)piperidin-1-yl)-1-oxobutan-2-yl)-3-(trifluoromethoxy)benzamide]
12 | 10 to 100 nM | CC(C)[C@@H](NC(=O)c1cc(OC(F)(F)F)ccc1F)C(=O)N1CCC(C)(NCc2ccc(S(C)(=O)=O)cc2)CC1 [Example 39, (R)-2-Fluoro-N-(3-methyl-1-(4-methyl-4-((4-(methylsulfonyl)benzyl)amino)piperidin-1-yl)-1-oxobutan-2-yl)-5-(trifluoromethoxy)benzamide]
13 | 100 to 500 nM | COc1ccc(CNC2(C)CCN(C(=O)[C@H](NC(=O)c3cc(OC(F)(F)F)ccc3F)C(C)C)CC2)cc1 [Example 40, (R)-2-Fluoro-N-(1-(4-((4-methoxybenzyl)amino)-4-methylpiperidin-1-yl)-3-methyl-1-oxobutan-2-yl)-5-(trifluoromethoxy)benzamide]
14 | 100 to 500 nM | CC(C)[C@@H](NC(=O)c1cccc(OC(F)(F)F)c1)C(=O)N1CCC(C)(NCc2ccc(S(C)(=O)=O)cc2)CC1 [Example 41, (R)—N-(3-Methyl-1-(4-methyl-4-((4-(methylsulfonyl)benzyl)amino)piperidin-1-yl)-1-oxobutan-2-yl)-3-(trifluoromethoxy)benzamide]
15 | 500 to 5000 nM | CC(C)[C@H](NC(=O)c1cccc(OC(F)(F)F)c1)C(=O)N1CCC(C)(NCc2ccc(S(C)(=O)=O)cc2)CC1 [Example 42, (S)—N-(3-Methyl-1-(4-methyl-4-((4-(methylsulfonyl)benzyl)amino)piperidin-1-yl)-1-oxobutan-2-yl)-3-(trifluoromethoxy)benzamide]
